Data on eleven molecules can be found in ChEMBL document CHEMBL1201862, “PubChem BioAssay data set” (2004).

Holding throughout (test): inhibition of tumour cell growth, NCI panel, 48 h
The test system of assay [1] is 786-0.
Assay [2] has as its system A549.
Assay [3] deals with ACHN.
Assay [4] relates to CAKI-1.
In assay [5] the test system is COLO 205.
Assay [6] deals with HCT-15.
Assay [7] concerns KM12.
Assay [8] relates to NCI/ADR-RES.
Assay [9] concerns OVCAR-3.
For assay [10], the system named is OVCAR-4.
Assay [11] deals with OVCAR-5.
Assay [12] concerns SF-295.
The test system of assay [13] is SK-MEL-28.
For assay [14], the system named is SK-OV-3.
The subject of assay [15] is U-251.
Assay [16] relates to UO-31.
The test system of assay [17] is A498.
The test system of assay [18] is HOP-92.
For assay [19], the system named is K562.
Assay [20] concerns NCI-H460.

Structures are written as SMILES.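 Assay format: 96-well plates, 48-hour exposure. At the GI50, growth is halved.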 Active and inactive are the calls of the source. Rule as the data show it: active = GI50 up to about 1.1 µM and inactive = higher. A value given as a limit tells only on which side of the number the result lay.

On to `CCN(CC)C(=O)N1CN(c2ccccc2)C2(CCN(CCCC3(c4ccc(F)cc4)OCCO3)CC2)C1=O`, for which the GI50 in [1] was 18.6 µM (inactive); in [2], 29.3 µM (inactive); in assay [3] it was > 10 µM (inactive); in [4], > 100 µM (inactive); in [5], 3.13 µM (inactive); in assay [6], 15.2 µM. For the same molecule, the GI50 in assay [7] was 16.5 µM (inactive); in assay [8], 23.6 µM (inactive); in assay [9], 16.4 µM (inactive); in assay [10], 22.4 µM (inactive); in [11], > 10 µM (inactive); in assay [12], 25.4 µM (inactive). The GI50 in assay [13] is 13.8 µM (inactive); in assay [14], 24.4 µM (inactive); in assay [15], 16.6 µM (inactive); in assay [16], 18.4 µM (inactive).

In the case of `COC(=O)CCC(=O)Nc1cccc(C(F)(F)F)c1`, the GI50 in [1], in [17], in assay [2], in assay [3], in assay [4] and in assay [5] was > 100 µM (inactive) throughout. The GI50 in assay [6] was greater than 100 µM; in assay [18], > 100 µM (inactive); in assay [19], > 100 µM (inactive); in [7], > 100 µM (inactive); in assay [20] it was > 100 µM (inactive); in [9], > 100 µM (inactive). Also, the GI50 in assay [10], in [11], in [12], in assay [13], in assay [14] and in [15] was > 100 µM (inactive) each time. Moreover, the GI50 in assay [16] was > 100 µM (inactive).

Take `Cn1cnc([N+](=O)[O-])c1Sc1nc2ccccc2o1`: the GI50 is 14 µM (inactive) in assay [1]; 19.3 µM (inactive) in assay [17]; 23.1 µM (inactive) in assay [2]; 11.5 µM (inactive) in assay [3]; 1.9 µM (inactive) in [4]; 1.7 µM (inactive) in [5]. Further, the GI50 in assay [6] is 2.77 µM; in [18], 4.24 µM (inactive); in assay [19], 2.53 µM (inactive); in assay [7] it was 5.18 µM (inactive); in [20], 32.3 µM (inactive); in assay [9] it was 5.81 µM (inactive). The GI50 in [10] is 4.35 µM (inactive); in assay [11], 14.2 µM (inactive); in assay [12] it was 26.3 µM (inactive); in assay [13], 5.78 µM (inactive); in assay [14] it was 22.8 µM (inactive); in assay [15], 12.6 µM (inactive). Further, the GI50 in assay [16] was 12.2 µM (inactive).

With `COC(=O)[C@@]1(C(C)CC(=O)O)CCCCC1=O` (stereo partly specified), the GI50 in [1] was 27 µM (inactive); in [17], > 100 µM (inactive); in assay [2] it was > 100 µM (inactive); in [3] it was > 100 µM (inactive); in assay [4], > 100 µM (inactive); in [5], 50.7 µM (inactive). Besides, the GI50 in [6] was 42.6 µM; in assay [18], > 100 µM (inactive); in assay [19], > 100 µM (inactive); in [7] it was > 100 µM (inactive); in [20], > 100 µM (inactive); in assay [9], > 100 µM (inactive). The GI50 in assay [10], in assay [11], in [12], in assay [13], in assay [14] and in assay [15] was > 100 µM (inactive) in each case. The GI50 in [16] is > 100 µM (inactive).

Take `COc1ccc2c(c1)c(Cc1c(C)n(C)c3ccc(OC)cc13)c(C)n2C`: the GI50 in assay [1] was 86.1 µM (inactive); in assay [17], > 100 µM (inactive); in assay [2] it was > 100 µM (inactive); in assay [3], > 100 µM (inactive); in assay [4], > 100 µM (inactive); in [5], > 100 µM (inactive). Besides, the GI50 was greater than 100 µM in assay [6]; > 100 µM (inactive) in assay [18]; > 100 µM (inactive) in assay [19]; > 100 µM (inactive) in [7]; > 100 µM (inactive) in [20]; > 100 µM (inactive) in assay [9]. Besides, the GI50 in assay [10], in [11], in assay [12], in [13], in [14] and in assay [15] was > 100 µM (inactive) in each case. Besides, the GI50 in [16] is > 100 µM (inactive).

Regarding `Cc1cc(=O)cc2sc3c(C)cccc3nc1-2`, the GI50 in assay [1] is 17.6 µM (inactive); in assay [17], 23.3 µM (inactive); in assay [2], 63.5 µM (inactive); in [3] it was 49.1 µM (inactive); in assay [4], 39.9 µM (inactive); in assay [5], 18.4 µM (inactive). Besides, the GI50 in assay [6] was 48.1 µM; in assay [18], 22.4 µM (inactive); in assay [19], 23.6 µM (inactive); in assay [7], 22.5 µM (inactive); in assay [20], 25.4 µM (inactive); in assay [9], 15.5 µM (inactive). For the same molecule, the GI50 is 15.8 µM (inactive) in [10]; 49.9 µM (inactive) in assay [11]; 35 µM (inactive) in assay [12]; 23.1 µM (inactive) in assay [13]; > 100 µM (inactive) in assay [14]; 37.1 µM (inactive) in assay [15]. For the same molecule, in [16], the GI50 is 28.6 µM (inactive).

For the molecule `COc1ccc(/C(Cl)=C(\C=O)c2ccc([N+](=O)[O-])cc2)cc1`, the GI50 in assay [1] is 13.3 µM (inactive); in assay [17], 22.4 µM (inactive); in [2], 17.7 µM (inactive); in assay [3], 18.5 µM (inactive); in [4] it was 11.1 µM (inactive); in [5], 19.1 µM (inactive). Further, the GI50 in assay [6] was 5.25 µM; in assay [18] it was 6.97 µM (inactive); in assay [19], 3.12 µM (inactive); in assay [7] it was 2.4 µM (inactive); in assay [20], 18.3 µM (inactive); in [9], 18.4 µM (inactive). The GI50 in [10] was 17.5 µM (inactive); in [11], > 100 µM (inactive); in assay [12], 13.2 µM (inactive); in assay [13], 23 µM (inactive); in assay [14], 33 µM (inactive); in assay [15], 10.5 µM (inactive). Further, the GI50 in [16] is 18.5 µM (inactive).

In the case of `COC12C=C(C)C(CC1)CC2C(=O)O` (stereo unspecified), the GI50 in [1], in assay [17], in [2], in [3], in assay [4] and in assay [5] was > 100 µM (inactive) in each case. The GI50 is greater than 100 µM in assay [6]; > 100 µM (inactive) in [18]; > 100 µM (inactive) in assay [19]; > 100 µM (inactive) in [7]; > 100 µM (inactive) in assay [20]; > 100 µM (inactive) in assay [9]. Also, the GI50 in assay [10], in assay [11], in assay [12], in [13], in [14] and in [15] was > 100 µM (inactive) in each case. Moreover, the GI50 in assay [16] was > 100 µM (inactive).

On to `CCCCCC/C=C1\CCC(CN2CCOCC2)C1=O` (stereo unspecified), for which the GI50 in assay [1] was 4.23 µM (inactive); in assay [17] it was 18 µM (inactive); in assay [2], > 45.1 µM (inactive); in assay [3], 17.4 µM (inactive); in assay [4], 16.8 µM (inactive); in assay [5], 17.1 µM (inactive). For the same molecule, the GI50 in assay [6] was 8.67 µM; in assay [18] it was 16.3 µM (inactive); in assay [19], 3.07 µM (inactive); in [7], 7.64 µM (inactive); in assay [20], 38.7 µM (inactive); in assay [9], 18.5 µM (inactive). In addition, the GI50 in assay [10] was 20.4 µM (inactive); in [11], 20.3 µM (inactive); in [12], 17.7 µM (inactive); in assay [13] it was 16.9 µM (inactive); in assay [14], 35.8 µM (inactive); in assay [15], 15.5 µM (inactive). The GI50 in assay [16] is 14.3 µM (inactive).

For the molecule `O=c1c2ccccc2[nH]c2c(O)ccc(O)c12`, the GI50 in assay [1] is 18.8 µM (inactive); in [17] it was 38.3 µM (inactive); in assay [2], 36.2 µM (inactive); in assay [3] it was 17.3 µM (inactive); in [4], 13.9 µM (inactive); in assay [5], > 10 µM (inactive). Further, the GI50 in assay [6] was 17.9 µM; in assay [18] it was 18.8 µM (inactive); in assay [19] it was 17.5 µM (inactive); in assay [7], 45.1 µM (inactive); in assay [20] it was 24.9 µM (inactive); in assay [9], 16.6 µM (inactive). Also, the GI50 in assay [10] was 3.39 µM (inactive); in assay [11], > 76.9 µM (inactive); in assay [12] it was 17.3 µM (inactive); in assay [13], 18.8 µM (inactive); in assay [14], 25.7 µM (inactive); in assay [15], 15.1 µM (inactive). The GI50 in [16] is 37.7 µM (inactive).

Regarding `Cn1c(=O)cc2[nH]c3ccccc3n2c1=O`, the GI50 in assay [1] was 24 µM (inactive); in [17] it was > 100 µM (inactive); in assay [2] it was > 100 µM (inactive); in assay [3] it was 69.7 µM (inactive); in assay [4] it was > 100 µM (inactive); in [5], 14.2 µM (inactive). Further, the GI50 in [6] is 33.7 µM; in [18] it was > 100 µM (inactive); in assay [19], 42.1 µM (inactive); in assay [7] it was > 100 µM (inactive); in assay [20], 57.5 µM (inactive); in assay [9], > 100 µM (inactive). The GI50 in assay [10] was 27 µM (inactive); in [11], > 100 µM (inactive); in assay [12], > 100 µM (inactive); in assay [13], > 100 µM (inactive); in [14] it was 48.8 µM (inactive); in assay [15] it was 16.2 µM (inactive). For the same molecule, the GI50 in [16] is 93.3 µM (inactive).
